System: Corynebacterium A sp. NCIMB 40928
Assay: In vitro model of fatty acid catabolism by axillary bacteria (culture viability and remaining fatty acid after 24 h)
Assay type: cell-based
Conditions: for Viability / Fatty acid utilisation: 24 h; for Viability: 35° C.; for Fatty acid utilisation: pentadecanoic acid 2.0 mg/ml
Protocol: This experiment uses the methods of WO 00/01353 to illustrate the much greater efficacy of 4-hydroxy-3-methoxybenzyl alcohol at inhibiting fatty acid catabolism by corynebacteria A, when compared with analogous materials previously disclosed in the aforementioned publication. Data illustrating the sub-lethal aspect of the inhibition are also presented.
An in vitro model system, reproducing fatty acid catabolism by axillary bacteria, was used. To each of several 250 ml baffled shake flasks was added 30 ml semi-synthetic medium (see below), supplemented with fatty acid substrate (2.0 mg/ml pentadecanoic acid) and non-fatty acid substrate (0.5 mg/ml glucose). To each flask (other than the control) was also added one of the indicated test materials, as a 10% (w/v) emulsion in semi-synthetic medium, supplemented with Gum Arabic (5.0 mg/ml). (Emulsions were formed by ultra-homogenisation at 24,000 rpm for about 1 min.) Each of the flasks was inoculated with fresh bacterial biomass (Corynebacterium A sp. NCIMB 40928), pre-grown for 24 h in TSBT (see below), to give starting optical densities (A590) of 1.0-2.0. Following inoculation, the flasks were incubated aerobically at 35° C., with agitation (130 rpm), for 24 hours. After this time, culture viability and remaining fatty acid were determined by methodology as described in […].
Composition of semi-synthetic medium in g/l: KH2PO4 (1.6), (NH4)2HPO4 (5.0), Na2SO4 (0.38), yeast nitrogen base (3.35) (Difco), yeast extract (0.5) (Beta Lab), Tween 80™ (0.2), Triton X-100™ (0.2), and MgCl2.6H2O (0.5).
Composition of TSBT (Tween-supplemented Tryptone soya broth) in g/l: Tryptone soya broth (30.0) (Merck), yeast extract (10.0) (Beta Lab), and Tween 80™ (1.0).
NCIMB 40928 in terms of culture viability and fatty acid utilisation. Various concentrations of active were investigated. It will be noted that for each of the Examples, culture viability was not substantially affected.

| SMILES | Viability (active conc. 0.1 g/l) | Fatty acid utilisation (active conc. 0.1 g/l) | Viability (active conc. 0.25 g/l) | Fatty acid utilisation (active conc. 0.25 g/l) | Viability (active conc. 0.5 g/l) | Fatty acid utilisation (active conc. 0.5 g/l) | Viability (active conc. 1.0 g/l) | Fatty acid utilisation (active conc. 1.0 g/l) | Viability (active conc. 5.0 g/l) | Fatty acid utilisation (active conc. 5.0 g/l) | Viability (active conc. 10.0 g/l) | Fatty acid utilisation (active conc. 10.0 g/l) | Reduction of the fatty acid catabolism of corynebacteria A (at a concentration of 0.5 mg/ml or less) | Concentration producing sub-lethal inhibition (greater than 50% inhibition of pentadecanoic acid utilisation without reduction in cell viability, ≦1 log10 CFU/ml) (corynebacteria A) |
| --- | --- | --- | --- | --- | --- | --- | --- | --- | --- | --- | --- | --- | --- | --- |
| OCc1ccc(O)cc1 [A, 4-hydroxybenzyl alcohol] | 8.69 log10CFU/ml | 100% | 8.85 log10CFU/ml | 97% | 8.17 log10CFU/ml | 21% | – | – | – | – | – | – | – | – |
| COc1ccc(CO)cc1O [B, 3-hydroxy-4-methoxybenzyl alcohol] | – | – | – | – | – | – | 8.90 log10CFU/ml | 99% | 8.99 log10CFU/ml | 86% | 8.62 log10CFU/ml | 29% | – | – |
| COc1cc(CCO)ccc1O [C, 4-hydroxy-3-methoxyphenethyl alcohol] | – | – | – | – | – | – | 8.80 log10CFU/ml | 99% | 8.60 log10CFU/ml | 59% | 8.09 log10CFU/ml | 26% | – | – |
| COc1cc(CO)ccc1O [Example 1, 4-hydroxy-3-methoxybenzyl alcohol] | 8.91 log10CFU/ml | 65% | 8.88 log10CFU/ml | 40% | 8.28 log10CFU/ml | 20% | – | – | – | – | – | – | greater than 50% | ≤ 0.25 mg/ml |
